The supplement of paper PMC10307832

How the values were obtained:
Test in all cases: relative viability (nuclei count vs DMSO), 5 days (fraction); higher = more cells survive
CX-5461 + Palbociclib = compound: Cc1cnc(CNC(=O)c2c(=O)c3ccc(N4CCCN(C)CC4)nc3n3c2sc2ccccc23)cn1 [CX-5461] + CC(=O)c1c(C)c2cnc(Nc3ccc(N4CCNCC4)cn3)nc2n(C2CCCC2)c1=O [Palbociclib] (partner 0.5 µM)
Method in brief: (§1)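 A single step with final 0.05% Triton X-100, 1% formaldehyde and 1 ug/ml Hoechst fixed the cells and stained nuclei 5 days after treatment. Lung cancer cell lines in 1536-well plates had been treated by pin tool the day after seeding with one drug alone or a fixed anchor-drug dose plus five library-drug doses (not always all listed) in √10 steps, and nuclei were counted on 4× images. Relative viability is the ratio of nuclei in treated wells to nuclei in vehicle wells, taken as the median of duplicate plates.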

CX-5461 + Navitoclax = compound: Cc1cnc(CNC(=O)c2c(=O)c3ccc(N4CCCN(C)CC4)nc3n3c2sc2ccccc23)cn1 [CX-5461] + CC1(C)CCC(c2ccc(Cl)cc2)=C(CN2CCN(c3ccc(C(=O)NS(=O)(=O)c4ccc(N[C@H](CCN5CCOCC5)CSc5ccccc5)c(S(=O)(=O)C(F)(F)F)c4)cc3)CC2)C1 [Navitoclax] (partner 0.5 µM)
Method in brief: as §1

IMD-0354 + Crizotinib = compound: O=C(Nc1cc(C(F)(F)F)cc(C(F)(F)F)c1)c1cc(Cl)ccc1O [IMD-0354] + C[C@@H](Oc1cc(-c2cnn(C3CCNCC3)c2)cnc1N)c1c(Cl)ccc(F)c1Cl [Crizotinib] (partner 1 µM)
Method in brief: as §1

IMD-0354 + Linsitinib = compound: O=C(Nc1cc(C(F)(F)F)cc(C(F)(F)F)c1)c1cc(Cl)ccc1O [IMD-0354] + C[C@]1(O)C[C@@H](c2nc(-c3ccc4ccc(-c5ccccc5)nc4c3)c3c(N)nccn32)C1 [Linsitinib] (partner 1 µM)
Method in brief: as §1

Row | Cell Line | relative viability (CX-5461 + Palbociclib; first compound 0.01 µM) | relative viability (CX-5461 + Palbociclib; first compound 0.03162 µM) | relative viability (CX-5461 + Palbociclib; first compound 0.1 µM) | relative viability (CX-5461 + Palbociclib; first compound 0.3162 µM) | relative viability (CX-5461 + Palbociclib; first compound 1 µM) | relative viability (CX-5461 + Navitoclax; first compound 0.01 µM) | relative viability (CX-5461 + Navitoclax; first compound 0.03162 µM) | relative viability (CX-5461 + Navitoclax; first compound 0.1 µM) | relative viability (CX-5461 + Navitoclax; first compound 0.3162 µM) | relative viability (CX-5461 + Navitoclax; first compound 1 µM) | relative viability (IMD-0354 + Crizotinib; first compound 0.04 µM) | relative viability (IMD-0354 + Crizotinib; first compound 0.1265 µM) | relative viability (IMD-0354 + Crizotinib; first compound 0.4 µM) | relative viability (IMD-0354 + Crizotinib; first compound 1.265 µM) | relative viability (IMD-0354 + Crizotinib; first compound 4 µM) | relative viability (IMD-0354 + Linsitinib; first compound 0.04 µM) | relative viability (IMD-0354 + Linsitinib; first compound 0.1265 µM) | relative viability (IMD-0354 + Linsitinib; first compound 0.4 µM) | relative viability (IMD-0354 + Linsitinib; first compound 1.265 µM) | relative viability (IMD-0354 + Linsitinib; first compound 4 µM)
1 | NCI-H3122 | 0.192 | 0.191 | 0.175 | 0.169 | 0.186 | 0.966 | 1.04 | 1.03 | 1.01 | 0.97 | 0.298 | 0.29 | 0.281 | 0.202 | 0.167 | 1.06 | 1.12 | 0.742 | 0.573 | 0.15
2 | PC-3 [JPC-3] | 0.517 | – | 0.533 | 0.543 | 0.512 | 0.86 | 0.861 | 0.746 | 0.784 | 0.821 | 1.08 | 1.01 | 0.601 | 0.419 | 0.18 | 0.975 | 0.945 | 0.826 | 0.734 | 0.251
3 | PC-14 | 0.467 | 0.466 | 0.239 | 0.492 | 0.0872 | 1.18 | 1.06 | 1.03 | 0.974 | 0.979 | 0.988 | 0.92 | 0.357 | 0.387 | 0.179 | 1.01 | 0.841 | 0.604 | 0.403 | 0.175
4 | RERF-LC-KJ | 1.03 | 1.16 | 0.713 | 0.956 | 0.742 | 0.95 | 0.969 | 1.17 | 0.887 | 0.837 | 0.861 | 0.893 | 0.495 | 0.311 | 0.196 | 0.948 | 0.944 | 0.66 | 0.298 | 0.208
5 | SK-LU-1 | 0.412 | 0.407 | 0.376 | 0.388 | 0.358 | 0.792 | 0.972 | 0.718 | 0.808 | 0.23 | 1.19 | 0.682 | 0.501 | 0.28 | 0.312 | 1.41 | 0.863 | 0.621 | 0.24 | 0.264
6 | SK-MES-1 | 0.299 | 0.308 | 0.281 | 0.342 | 0.249 | 1.19 | 1.28 | 1.28 | 1.38 | 1.14 | 1.03 | 1.08 | 0.559 | 0.721 | 0.252 | 1.05 | 1.08 | 0.762 | 0.719 | 0.221
7 | SW 1573 | 0.343 | 0.388 | 0.125 | 0.371 | 0.109 | 0.974 | 0.998 | 1.05 | 0.872 | 1.12 | 0.819 | 0.763 | 0.408 | 0.268 | 0.115 | 0.764 | 0.697 | 0.589 | 0.493 | 0.102
